Key:
Format in all cases: in vivo
[1] = test system: Setaria viridis; assay: Pre-emergence herbicidal effect; conditions: 320 g/ha, scored visually after 3 weeks vs untreated controls, 100% = plants have died
Text: (§1) Seeds of monocotyledonous and dicotyledonous weed plants and crop plants are laid out in sandy loam soil in wood-fibre pots and covered with soil. The compounds of the invention, formulated in the form of wettable powders (WP) or as emulsion concentrates (EC), are then applied to the surface of the covering soil as aqueous suspension or emulsion at a water application rate equating to 600 to 800 L/ha with addition of 0.2% wetting agent. After the treatment, the pots are placed in a greenhouse and kept under good growth conditions for the trial plants. The damage to the test plants is scored visually after a test period of 3 weeks by comparison with untreated controls (herbicidal activity in percent (%): 100% activity=the plants have died, 0% activity=like control plants). SETVI: Setaria viridis

[2] = test system: Alopecurus myosuroides; assay: Pre-emergence herbicidal effect; conditions: 320 g/ha, scored visually after 3 weeks vs untreated controls, 100% = plants have died
Text: as §1, with “ALOMY: Alopecurus myosuroides” for “SETVI: Setaria viridis”

[3] = test system: Setaria viridis; assay: Post-emergence herbicidal effect; conditions: one-leaf stage, 320 g/ha, assessed visually after about 3 weeks, 100% = plants have died
Method: (§2) SETVI: Setaria viridis Seeds of monocotyledonous and dicotyledonous weed and crop plants are laid out in sandy loam soil in wood-fibre pots, covered with soil and cultivated in a greenhouse under good growth conditions. 2 to 3 weeks after sowing, the test plants are treated at the one-leaf stage. The compounds of the invention, formulated in the form of wettable powders (WP) or as emulsion concentrates (EC), are then sprayed onto the green parts of the plants as aqueous suspension or emulsion at a water application rate equating to 600 to 800 L/ha with addition of 0.2% wetting agent. After the test plants have been left to stand in the greenhouse under optimal growth conditions for about 3 weeks, the action of the preparations is assessed visually in comparison to untreated controls (herbicidal action in percent (%): 100% activity=the plants have died, 0% activity=like control plants).

[4] = test system: Avena fatua; assay: Post-emergence herbicidal effect; conditions: one-leaf stage, 320 g/ha, assessed visually after about 3 weeks, 100% = plants have died
Method: as §2, with “AVEFA: Avena fatua” for “SETVI: Setaria viridis”

[5] = test system: Alopecurus myosuroides; assay: Post-emergence herbicidal effect; conditions: one-leaf stage, 320 g/ha, assessed visually after about 3 weeks, 100% = plants have died
Method: as §2, with “ALOMY: Alopecurus myosuroides” for “SETVI: Setaria viridis”

[6] = test system: Avena fatua; assay: Pre-emergence herbicidal effect; conditions: 320 g/ha, scored visually after 3 weeks vs untreated controls, 100% = plants have died
Text: as §1, with “AVEFA: Avena fatua” for “SETVI: Setaria viridis”

[7] = test system: Echinochloa crus-galli; assay: Pre-emergence herbicidal effect; conditions: 320 g/ha, scored visually after 3 weeks vs untreated controls, 100% = plants have died
Text: as §1, with “ECHCG: Echinochloa crus-galli” for “SETVI: Setaria viridis”

[8] = test system: Lolium multiflorum; assay: Post-emergence herbicidal effect; conditions: one-leaf stage, 320 g/ha, assessed visually after about 3 weeks, 100% = plants have died
Method: as §2, with “LOLMU: Lolium multiflorum” for “SETVI: Setaria viridis”

[9] = test system: Echinochloa crus-galli; assay: Post-emergence herbicidal effect; conditions: one-leaf stage, 320 g/ha, assessed visually after about 3 weeks, 100% = plants have died
Method: as §2, with “ECHCG: Echinochloa crus-galli” for “SETVI: Setaria viridis”

[10] = test system: Lolium multiflorum; assay: Pre-emergence herbicidal effect; conditions: 320 g/ha, scored visually after 3 weeks vs untreated controls, 100% = plants have died
Text: as §1, with “LOLMU: Lolium multiflorum” for “SETVI: Setaria viridis”

| SMILES | Pre-emergence action SETVI (herbicidal activity in percent) [1] [%] | Pre-emergence action ALOMY (herbicidal activity in percent) [2] [%] | Post-emergence effectiveness SETVI (herbicidal action in percent) [3] [%] | Post-emergence effectiveness AVEFA (herbicidal action in percent) [4] [%] | Post-emergence effectiveness ALOMY (herbicidal action in percent) [5] [%] | Pre-emergence action AVEFA (herbicidal activity in percent) [6] [%] | Pre-emergence action ECHCG (herbicidal activity in percent) [7] [%] | Post-emergence effectiveness LOLMU (herbicidal action in percent) [8] [%] | Post-emergence effectiveness ECHCG (herbicidal action in percent) [9] [%] | Pre-emergence action LOLMU (herbicidal activity in percent) [10] [%] |
| --- | --- | --- | --- | --- | --- | --- | --- | --- | --- | --- |
| Cc1cc(C)c(C2=C(O)C3CCOCCN3C2=O)c(C)c1 (centres unmarked) [Ia-1-1] | 90 | 100 | 100 | 100 | 100 | 100 | 100 | 100 | 100 | 100 |
| CCc1cc(C)cc(C)c1C1=C(O)C2CCOCCN2C1=O (centres unmarked) [Ia-1-2] | 100 | 100 | 100 | 100 | 100 | 100 | 100 | 100 | 100 | 100 |
| CCc1cccc(C)c1C1=C(O)C2CCOCCN2C1=O (centres unmarked) [Ia-1-4] | 100 | 80 | 100 | 100 | 100 | 100 | 100 | 100 | 100 | 100 |
| CCc1cc(Cl)cc(OC)c1C1=C(O)C2CCOCCN2C1=O (centres unmarked) [Ia-1-6] | 100 | 100 | 100 | 100 | 100 | 100 | 100 | 100 | 100 | 100 |
| CCc1cc(Cl)cc(OC)c1C1=C(O)C2=CCOCCN2C1=O [Ia-3-4] | 100 | 80 | 100 | 100 | 100 | 80 | 90 | 100 | 100 | 90 |
| CCOC(=O)OC1=C(c2c(CC)cc(C)cc2CC)C(=O)N2CCOCCC12 (centres unmarked) [Ib-1-2] | 100 | 100 | 100 | 100 | 100 | 100 | 100 | 100 | 100 | 100 |
| CCc1cc(C)cc(CC)c1C1=C(OC(=O)C(C)(C)C)C2CCOCCN2C1=O (centres unmarked) [Ib-1-3] | 100 | 100 | 100 | 100 | 100 | 100 | 100 | 100 | 100 | 100 |
| CCc1cc(C)cc(CC)c1C1=C(OC(C)=O)C2CCOCCN2C1=O (centres unmarked) [Ib-1-4] | 100 | 100 | 100 | 100 | 100 | 100 | 100 | 100 | 100 | 100 |

Reference: US20190119298A1, “FUSED 3-PHENYLTETRAMIC ACID DERIVATIVES HAVING HERBICIDAL ACTION” (Bayer CropScience Aktiengesellschaft, priority 2016, published 2019)
